Measurements as given in ChEMBL document CHEMBL5346907, “Discovery of a novel oral type Ⅰ CDK8 inhibitor against acute myeloid leukemia” (Eur J Med Chem, 2023).
pIC50: −log10 of the molar value. Active and inactive are the calls of the source. No cut-off for these calls is given here.

Legend:
A549 = assay: Antiproliferative activity against human A549 cells incubated for 48 hrs by CCK8 assay; assay type: functional
HL-60 [1] = assay: Effect on cell cycle at S phase in human HL-60 cells at 1 to 10 uM incubated for 48 hrs by […]PI staining based flow cytometry; assay type: functional; conditions: dose 1-10 µM
[2] = biological target: Ephrin type-B receptor 3 (Homo sapiens) (UniProt P54753); assay: Inhibition of EPHB3 (unknown origin) at 1 uM preincubated for 10 mins followed by substrate addition measured for 60 to 120 mins by HTRF assay relative to control; conditions: time 70-130 min
Ephrin type-B receptor 3 (Homo sapiens), sequence (P54753 whole entry, the tested form may be a part): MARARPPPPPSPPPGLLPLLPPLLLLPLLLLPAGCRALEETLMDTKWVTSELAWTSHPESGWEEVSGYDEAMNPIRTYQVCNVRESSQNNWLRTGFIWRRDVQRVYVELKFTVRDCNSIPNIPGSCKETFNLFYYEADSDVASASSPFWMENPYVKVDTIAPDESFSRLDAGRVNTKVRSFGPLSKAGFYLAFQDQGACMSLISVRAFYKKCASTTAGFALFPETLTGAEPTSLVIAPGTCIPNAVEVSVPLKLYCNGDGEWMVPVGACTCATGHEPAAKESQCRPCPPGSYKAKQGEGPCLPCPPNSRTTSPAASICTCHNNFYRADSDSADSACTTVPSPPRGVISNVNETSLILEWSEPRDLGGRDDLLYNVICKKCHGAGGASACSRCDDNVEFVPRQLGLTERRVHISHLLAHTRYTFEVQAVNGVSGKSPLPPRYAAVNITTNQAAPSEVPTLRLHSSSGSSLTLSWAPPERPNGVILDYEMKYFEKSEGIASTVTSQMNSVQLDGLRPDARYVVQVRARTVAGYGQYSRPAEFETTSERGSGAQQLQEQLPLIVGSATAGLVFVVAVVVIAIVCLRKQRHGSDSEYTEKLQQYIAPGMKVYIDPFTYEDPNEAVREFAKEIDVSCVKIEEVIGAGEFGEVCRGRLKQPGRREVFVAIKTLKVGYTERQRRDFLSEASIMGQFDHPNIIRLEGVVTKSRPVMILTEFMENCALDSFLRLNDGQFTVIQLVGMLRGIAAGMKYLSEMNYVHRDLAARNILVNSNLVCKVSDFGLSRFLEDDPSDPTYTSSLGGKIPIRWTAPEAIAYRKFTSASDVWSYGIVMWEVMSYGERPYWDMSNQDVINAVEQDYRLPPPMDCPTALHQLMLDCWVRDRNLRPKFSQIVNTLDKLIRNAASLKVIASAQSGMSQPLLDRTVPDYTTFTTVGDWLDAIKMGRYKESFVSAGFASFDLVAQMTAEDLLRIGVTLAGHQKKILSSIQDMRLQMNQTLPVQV

[3] = biological target: Epithelial discoidin domain-containing receptor 1 (Homo sapiens) (UniProt Q08345); assay: Inhibition of DDR1 (unknown origin) at 1 uM preincubated for 10 mins followed by substrate addition measured for 60 to 120 mins by HTRF assay relative to control; conditions: time 70-130 min
Epithelial discoidin domain-containing receptor 1 (Homo sapiens), sequence (Q08345 whole entry, the tested form may be a part): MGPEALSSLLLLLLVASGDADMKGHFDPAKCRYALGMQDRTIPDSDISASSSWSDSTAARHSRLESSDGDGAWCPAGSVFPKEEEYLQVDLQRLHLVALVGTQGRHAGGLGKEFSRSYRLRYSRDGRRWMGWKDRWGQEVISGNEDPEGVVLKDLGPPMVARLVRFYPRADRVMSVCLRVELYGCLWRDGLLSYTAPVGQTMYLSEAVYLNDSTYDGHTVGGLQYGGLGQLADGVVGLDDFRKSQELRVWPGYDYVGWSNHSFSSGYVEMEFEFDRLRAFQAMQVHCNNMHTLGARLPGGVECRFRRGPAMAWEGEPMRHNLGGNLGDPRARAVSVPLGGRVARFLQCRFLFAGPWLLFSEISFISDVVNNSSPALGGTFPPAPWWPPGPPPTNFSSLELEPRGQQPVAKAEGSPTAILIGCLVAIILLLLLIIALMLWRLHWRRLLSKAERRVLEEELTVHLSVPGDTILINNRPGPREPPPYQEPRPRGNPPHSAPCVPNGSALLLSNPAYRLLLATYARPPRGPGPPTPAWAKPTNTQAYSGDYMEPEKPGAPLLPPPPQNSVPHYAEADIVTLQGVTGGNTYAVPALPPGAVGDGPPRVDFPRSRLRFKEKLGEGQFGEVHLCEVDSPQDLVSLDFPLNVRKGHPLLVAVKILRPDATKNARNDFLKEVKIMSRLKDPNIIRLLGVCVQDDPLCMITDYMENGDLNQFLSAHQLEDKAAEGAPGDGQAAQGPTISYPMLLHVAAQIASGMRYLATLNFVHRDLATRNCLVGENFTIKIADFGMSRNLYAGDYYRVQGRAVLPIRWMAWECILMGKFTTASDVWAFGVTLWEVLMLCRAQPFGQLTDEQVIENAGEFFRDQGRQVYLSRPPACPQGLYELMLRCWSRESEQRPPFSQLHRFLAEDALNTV

[4] = biological target: Tyrosine-protein kinase Mer (Homo sapiens) (UniProt Q12866); assay: Inhibition of MER (unknown origin) at 1 uM preincubated for 10 mins followed by substrate addition measured for 60 to 120 mins by HTRF assay relative to control; conditions: time 70-130 min
HL-60 [5] = assay: Induction of apoptosis in human HL-60 cells assessed as viable cells at 10 uM incubated for 48 hrs by annexin V-FITC/PI staining based flow cytometry (reference value: 96.5 %); assay type: functional; conditions: read-out: Activity
[6] = biological target: Macrophage-stimulating protein receptor (Homo sapiens) (UniProt Q04912); assay: Inhibition of RON (unknown origin) at 1 uM preincubated for 10 mins followed by substrate addition measured for 60 to 120 mins by HTRF assay relative to control; conditions: time 70-130 min
CDK6/cyclin D1 = CDK6/cyclin D1 (Homo sapiens, UniProt Q00534); assay: Inhibition of CDK6/Cyclin D1 (unknown origin) preincubated for 10 mins followed by substrate addition measured for 60 to 120 mins by HTRF assay; assay type: protein-complex assay
C1498 [7] = assay: Downregulation of STAT1 S727 expression in mouse C1498 cells allografted in AML Balb/C mouse model administered orally daily for 15 days measured after 3 weeks by Western blot analysis; assay type: functional, cell-based; conditions: dose 40-80 mg/kg, route po, time 15.0 day
[8] = biological target: Fibroblast growth factor receptor 2 (Homo sapiens) (UniProt P21802); assay: Inhibition of FGFR2 (unknown origin) at 1 uM preincubated for 10 mins followed by substrate addition measured for 60 to 120 mins by HTRF assay relative to control; conditions: time 70-130 min
[9] = biological target: CDK7/Cyclin H/MNAT1 (Homo sapiens) (UniProt P51946+P50613+P51948); assay: Inhibition of CDK7/Cyclin H/MAT1 (unknown origin) at 1 uM preincubated for 10 mins followed by substrate addition measured for 60 to 120 mins by HTRF assay relative to control; assay type: protein-complex assay; conditions: time 70-130 min
[10] = AUC (0 to infinity) in Sprague-Dawley rat at 10 mg/kg, po; assay type: ADME, organism-based; design: dose 10 mg/kg, route po; conditions: in vivo
[11] = biological target: Tyrosine-protein kinase ZAP-70 (Homo sapiens) (UniProt P43403); assay: Inhibition of ZAP70 (unknown origin) at 1 uM preincubated for 10 mins followed by substrate addition measured for 60 to 120 mins by HTRF assay relative to control; conditions: time 70-130 min
[12] = biological target: Cyclin-dependent kinase 8 (Homo sapiens, UniProt P49336); assay: Binding affinity to flag-tagged CDK8 (unknown origin) transfected in HEK-293T cells upto 4 uM incubated for 12 hrs by biotin pull down based Western blot analysis; assay type: cell-based
[13] = Cmax in Sprague-Dawley rat at 2 mg/kg, iv; assay type: ADME, organism-based; design: dose 2 mg/kg, route iv; conditions: in vivo
[14] = biological target: Cyclin-dependent kinase 5/CDK5 activator 1 (Homo sapiens) (UniProt Q00535+Q15078); assay: Inhibition of CDK5/p35NCK (unknown origin) at 1 uM preincubated for 10 mins followed by substrate addition measured for 60 to 120 mins by HTRF assay relative to control; assay type: protein-complex assay; conditions: time 70-130 min
[15] = biological target: Receptor tyrosine-protein kinase erbB-2 (Homo sapiens) (UniProt P04626); assay: Inhibition of HER2 (unknown origin) at 1 uM preincubated for 10 mins followed by substrate addition measured for 60 to 120 mins by HTRF assay relative to control; conditions: time 70-130 min
Receptor tyrosine-protein kinase erbB-2 (Homo sapiens), sequence (P04626 whole entry): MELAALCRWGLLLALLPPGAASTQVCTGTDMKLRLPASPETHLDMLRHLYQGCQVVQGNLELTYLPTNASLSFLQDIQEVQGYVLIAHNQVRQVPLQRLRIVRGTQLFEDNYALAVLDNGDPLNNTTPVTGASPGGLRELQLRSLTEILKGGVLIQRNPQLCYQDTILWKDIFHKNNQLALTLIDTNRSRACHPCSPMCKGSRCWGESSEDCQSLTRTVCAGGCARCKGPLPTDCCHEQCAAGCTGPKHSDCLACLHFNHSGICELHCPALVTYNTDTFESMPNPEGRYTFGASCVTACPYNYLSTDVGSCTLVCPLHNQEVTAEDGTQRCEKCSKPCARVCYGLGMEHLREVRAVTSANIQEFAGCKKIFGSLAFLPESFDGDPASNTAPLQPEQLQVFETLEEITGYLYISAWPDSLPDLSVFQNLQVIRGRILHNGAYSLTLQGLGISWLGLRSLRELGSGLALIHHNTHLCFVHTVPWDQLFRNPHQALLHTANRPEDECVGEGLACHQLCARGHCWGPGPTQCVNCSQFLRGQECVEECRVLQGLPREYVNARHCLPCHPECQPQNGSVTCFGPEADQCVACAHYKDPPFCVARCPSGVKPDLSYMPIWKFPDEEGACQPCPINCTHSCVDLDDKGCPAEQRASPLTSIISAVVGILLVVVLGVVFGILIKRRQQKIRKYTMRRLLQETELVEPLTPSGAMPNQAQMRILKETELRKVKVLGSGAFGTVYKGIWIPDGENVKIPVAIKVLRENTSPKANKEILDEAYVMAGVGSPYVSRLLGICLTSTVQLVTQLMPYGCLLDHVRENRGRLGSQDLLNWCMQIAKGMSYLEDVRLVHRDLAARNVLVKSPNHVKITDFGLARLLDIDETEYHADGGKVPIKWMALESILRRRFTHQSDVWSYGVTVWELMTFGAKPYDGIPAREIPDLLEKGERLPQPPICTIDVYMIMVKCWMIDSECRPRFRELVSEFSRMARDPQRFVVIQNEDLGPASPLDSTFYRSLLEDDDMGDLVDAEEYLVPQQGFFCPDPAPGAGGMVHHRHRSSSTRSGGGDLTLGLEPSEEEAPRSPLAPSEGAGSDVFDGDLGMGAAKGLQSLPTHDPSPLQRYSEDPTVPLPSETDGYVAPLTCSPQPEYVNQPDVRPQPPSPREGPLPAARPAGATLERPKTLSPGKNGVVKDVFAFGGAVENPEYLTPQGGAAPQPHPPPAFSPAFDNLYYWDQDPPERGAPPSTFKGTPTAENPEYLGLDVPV

[16] = biological target: Fibroblast growth factor receptor 4 (Homo sapiens) (UniProt P22455); assay: Inhibition of FGFR4 (unknown origin) at 1 uM preincubated for 10 mins followed by substrate addition measured for 60 to 120 mins by HTRF assay relative to control; conditions: time 70-130 min
HL-60 [17] = assay: Induction of apoptosis in human HL-60 cells assessed as late apoptotic cells at 5 uM incubated for 48 hrs by annexin V-FITC/PI staining based flow cytometry (reference value: 1.07 %); assay type: functional
MV4-11 = assay: Antiproliferative activity against human MV4-11 cells incubated for 48 hrs by CCK8 assay; assay type: functional
HL-60 [18] = assay: Induction of apoptosis in human HL-60 cells assessed as viable cells at 1 uM incubated for 48 hrs by annexin V-FITC/PI staining based flow cytometry (reference value: 96.5 %); assay type: functional; conditions: read-out: Activity
[19] = biological target: Macrophage colony-stimulating factor 1 receptor (Homo sapiens) (UniProt P07333); assay: Inhibition of CSF1R (unknown origin) at 1 uM preincubated for 10 mins followed by substrate addition measured for 60 to 120 mins by HTRF assay relative to control; conditions: time 70-130 min
C1498 [20] = assay: Antitumor activity against mouse C1498 cells allografted in AML Balb/C mouse model assessed as reduction in tumor growth at 40 to 80 mg/kg, po administered daily for 15 days measured on every 2 days; assay type: functional, organism-based; conditions: dose 40-80 mg/kg, time 15.0 day
[21] = biological target: ALK tyrosine kinase receptor (Homo sapiens) (UniProt Q9UM73); assay: Inhibition of ALK (unknown origin) at 1 uM preincubated for 10 mins followed by substrate addition measured for 60 to 120 mins by HTRF assay relative to control; conditions: time 70-130 min
[22] = Half life in Sprague-Dawley rat at 10 mg/kg, po; assay type: ADME, organism-based; conditions: in vivo
[23] = Toxicity in AML […] mouse model allografted with mouse C1498 cells assessed as body weight loss at 40 to 80 mg/kg, po administered daily for 15 days measured on every 2 days; assay type: organism-based; conditions: in vivo, 360 h, dose 40-80 mg/kg, time 15 day
[24] = biological target: Ephrin type-A receptor 7 (Homo sapiens) (UniProt Q15375); assay: Inhibition of EPHA7 (unknown origin) at 1 uM preincubated for 10 mins followed by substrate addition measured for 60 to 120 mins by HTRF assay relative to control; conditions: time 70-130 min
Ephrin type-A receptor 7 (Homo sapiens), sequence (Q15375 28-998 limits assumed): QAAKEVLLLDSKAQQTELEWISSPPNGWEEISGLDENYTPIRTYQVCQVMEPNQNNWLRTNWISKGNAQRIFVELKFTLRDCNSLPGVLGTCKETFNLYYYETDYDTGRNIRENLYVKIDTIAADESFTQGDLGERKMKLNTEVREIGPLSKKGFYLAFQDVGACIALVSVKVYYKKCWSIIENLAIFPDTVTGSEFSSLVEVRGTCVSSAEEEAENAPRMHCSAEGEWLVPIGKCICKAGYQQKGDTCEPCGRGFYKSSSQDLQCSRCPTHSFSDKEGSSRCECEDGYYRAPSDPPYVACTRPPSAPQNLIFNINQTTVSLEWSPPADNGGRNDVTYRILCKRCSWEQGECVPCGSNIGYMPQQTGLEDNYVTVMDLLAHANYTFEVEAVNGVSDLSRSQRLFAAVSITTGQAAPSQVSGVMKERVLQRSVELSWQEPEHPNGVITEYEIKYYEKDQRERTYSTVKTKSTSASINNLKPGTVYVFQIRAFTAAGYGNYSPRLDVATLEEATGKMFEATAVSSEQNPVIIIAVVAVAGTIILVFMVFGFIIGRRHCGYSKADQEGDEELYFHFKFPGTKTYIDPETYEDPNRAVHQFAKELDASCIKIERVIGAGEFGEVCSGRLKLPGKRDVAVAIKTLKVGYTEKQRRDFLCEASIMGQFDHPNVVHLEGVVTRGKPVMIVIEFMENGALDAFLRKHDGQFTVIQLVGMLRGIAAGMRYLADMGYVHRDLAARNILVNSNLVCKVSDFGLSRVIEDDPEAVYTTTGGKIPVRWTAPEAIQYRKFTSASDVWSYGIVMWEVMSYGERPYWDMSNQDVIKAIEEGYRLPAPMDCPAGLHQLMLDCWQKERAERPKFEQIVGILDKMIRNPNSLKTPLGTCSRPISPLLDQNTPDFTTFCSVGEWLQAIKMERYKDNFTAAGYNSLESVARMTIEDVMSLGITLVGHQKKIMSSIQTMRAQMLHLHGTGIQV

[25] = Tmax in Sprague-Dawley rat at 2 mg/kg, iv; assay type: ADME, organism-based; conditions: in vivo
MGC-803 = assay: Antiproliferative activity against human MGC-803 cells incubated for 48 hrs by CCK8 assay; assay type: functional
[26] = biological target: Mast/stem cell growth factor receptor Kit (Homo sapiens) (UniProt P10721); assay: Inhibition of KIT (unknown origin) at 1 uM preincubated for 10 mins followed by substrate addition measured for 60 to 120 mins by HTRF assay relative to control; conditions: time 70-130 min
[27] = biological target: Fibroblast growth factor receptor 1 (Homo sapiens) (UniProt P11362); assay: Inhibition of FGFR1 (unknown origin) at 1 uM preincubated for 10 mins followed by substrate addition measured for 60 to 120 mins by HTRF assay relative to control; conditions: time 70-130 min
Fibroblast growth factor receptor 1 (Homo sapiens), sequence (P11362 22-822 limits assumed): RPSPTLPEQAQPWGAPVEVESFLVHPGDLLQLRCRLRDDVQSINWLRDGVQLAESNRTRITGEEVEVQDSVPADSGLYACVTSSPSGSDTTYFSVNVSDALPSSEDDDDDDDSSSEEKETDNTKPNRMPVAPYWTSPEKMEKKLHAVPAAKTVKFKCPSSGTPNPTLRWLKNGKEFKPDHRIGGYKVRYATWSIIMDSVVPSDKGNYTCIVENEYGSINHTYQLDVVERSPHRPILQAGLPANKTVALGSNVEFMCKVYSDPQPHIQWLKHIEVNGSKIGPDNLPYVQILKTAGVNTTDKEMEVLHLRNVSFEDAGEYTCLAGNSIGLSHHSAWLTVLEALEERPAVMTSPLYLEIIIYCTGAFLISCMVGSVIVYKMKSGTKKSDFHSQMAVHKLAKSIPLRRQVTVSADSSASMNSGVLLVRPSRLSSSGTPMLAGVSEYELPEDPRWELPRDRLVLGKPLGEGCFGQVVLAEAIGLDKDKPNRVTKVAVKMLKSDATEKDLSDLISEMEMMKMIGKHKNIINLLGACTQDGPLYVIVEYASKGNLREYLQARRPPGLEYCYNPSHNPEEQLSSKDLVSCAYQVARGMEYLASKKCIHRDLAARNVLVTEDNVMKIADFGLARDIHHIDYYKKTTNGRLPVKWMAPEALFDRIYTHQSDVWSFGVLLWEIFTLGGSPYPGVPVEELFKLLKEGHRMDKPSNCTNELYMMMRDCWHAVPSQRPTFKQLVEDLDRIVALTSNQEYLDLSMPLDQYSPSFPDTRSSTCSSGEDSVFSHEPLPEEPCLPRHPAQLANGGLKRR

In the case of `NC(=O)c1cccc(-c2cnc3[nH]ccc3c2)c1`, the GI50 (A549) was greater than 50 µM, the Activity (HL-60 [1]) was “inactive” and the inhibition [2] was 13.5%. For the same molecule, the inhibition [3] was 20%, the inhibition [4] was 0% and the viability at 10 µM (HL-60 [5]) was 37.8%. For the same molecule, the inhibition [6] was 0.43%, the pIC50 (CDK6/cyclin D1) was 6.23 and the Activity (C1498 [7]) was “Dose-Dependent Effect”. For the same molecule, the inhibition [8] was 4.02%, the inhibition [9] was 18.9% and the AUC(0-inf) [10] was 434 ng·h/mL. The inhibition [11] was 0%, the Activity [12] was “Active” and the Cmax [13] was 231 ng/mL. It also gave an inhibition [14] of 15.8%, an inhibition [15] of 3.32% and an inhibition [16] of 14.1%. For the same molecule, the Activity (HL-60 [17]) was 1.45%, the GI50 (MV4-11) was 4.61 µM and the viability at 1 µM (HL-60 [18]) was 93.3%. For the same molecule, the inhibition [19] was 0%, the Activity (C1498 [20]) was “Active” and the inhibition [21] was 19.1%. For the same molecule, the half-life [22] was 84 min, the Activity [23] was “Non-Toxic” and the inhibition [24] was 0%. The Tmax [25] was 4.98 min, the GI50 (MGC-803) was greater than 50 µM and the inhibition [26] was 0%. For the same molecule, the inhibition [27] was 28.1%.
